Data from PubChem BioAssay (NCI).
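Test compounds were applied to cells in 96-well plates for 48 hours at 5 doses. TGI is the concentration that stops growth completely.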

Assays:
Assay in all cases: NCI anticancer screen, dose series, 48 h
SK-MEL-5 melanoma = test system: SK-MEL-5 melanoma
SK-MEL-28 melanoma = test system: SK-MEL-28 melanoma
SK-OV-3 ovarian = test system: SK-OV-3 ovarian
OVCAR-8 ovarian = test system: OVCAR-8 ovarian
RPMI-8226 leukemia = test system: RPMI-8226 leukemia
MOLT-4 leukemia = test system: MOLT-4 leukemia
U251 CNS = test system: U251 CNS
CAKI-1 renal = test system: CAKI-1 renal
SW-620 colon = test system: SW-620 colon
HOP-62 NSCLC = test system: HOP-62 NSCLC
TK-10 renal = test system: TK-10 renal
RXF 393 renal = test system: RXF 393 renal
MDA-MB-231 breast = test system: MDA-MB-231 breast
HS 578T breast = test system: HS 578T breast

SMILES | TGI (SK-MEL-5 melanoma) [µM] | TGI (SK-MEL-28 melanoma) [µM] | TGI (SK-OV-3 ovarian) [µM] | TGI (OVCAR-8 ovarian) [µM] | TGI (RPMI-8226 leukemia) [µM] | TGI (MOLT-4 leukemia) [µM] | TGI (U251 CNS) [µM] | TGI (CAKI-1 renal) [µM] | TGI (SW-620 colon) [µM] | TGI (HOP-62 NSCLC) [µM] | TGI (TK-10 renal) [µM] | TGI (RXF 393 renal) [µM] | TGI (MDA-MB-231 breast) [µM] | TGI (HS 578T breast) [µM]
CC(C)C(Sc1nc(-c2ccccc2)c(-c2ccccc2)[nH]1)C(=O)N/N=C/c1ccc([N+](=O)[O-])cc1 (configuration not stated) | 21.3 | 30.6 | 48.2 | > 100 | 47.6 | 10.3 | 29.8 | 47.9 | 37.2 | 37.8 | > 100 | – | – | –
CC(=O)OC1(C#N)CC2OC1C1C2N1C(=O)OC(C)(C)C (configuration not stated) | > 100 | > 100 | > 100 | > 100 | > 100 | > 100 | > 100 | > 100 | > 100 | > 100 | > 100 | > 100 | – | –
COc1ccc(N=Nc2c(C)c(C#N)c(=S)n(C3OC(COC(C)=O)C(OC(C)=O)C(OC(C)=O)C3OC(C)=O)c2-c2ccccc2)cc1 (configuration not stated) | – | 20.3 | – | – | > 100 | 47.9 | 22.6 | 21.3 | 11.1 | 26.5 | 34.2 | 23.7 | 22.3 | –
Cn1c(=O)c2nc3nnc(C#N)c(N)n3c2n(C)c1=O | > 100 | > 100 | > 100 | > 100 | > 100 | > 100 | > 100 | > 100 | – | > 100 | > 100 | > 100 | > 100 | –
NC(CCCCN=Cc1nc(-c2ccccc2)oc1O)C(=O)O (configuration not stated) | > 100 | > 100 | > 100 | > 100 | > 100 | > 100 | > 100 | – | > 100 | > 100 | > 100 | > 100 | – | –
O=c1oc2cc(O)ccc2cc1-c1nc2ccccc2s1 | 28.5 | > 100 | 78.1 | > 100 | > 100 | 17.4 | 55.7 | 74.6 | 44 | 41.6 | > 100 | 79.9 | 53.6 | –
CC1(C)O[C@H]2[C@@H]3N=C(c4ccccc4)O[C@@H]3C=C[C@H]2O1 | > 100 | > 100 | > 100 | > 100 | > 100 | > 100 | > 100 | > 100 | > 100 | > 100 | > 100 | – | > 100 | –
Cc1ccc([N+](=O)[O-])cc1NC(=O)C(=O)Cc1cc(=O)oc2cc(O)ccc12 | > 100 | > 100 | > 100 | > 100 | 75.3 | > 100 | > 100 | > 100 | – | > 100 | > 100 | > 100 | – | –
CCn1c(-c2ccccc2)nc2c1C(=O)c1ccccc1C2=O | 23.2 | > 100 | 86 | 35 | > 100 | 91.1 | > 100 | – | > 100 | > 100 | 85.9 | 50.9 | – | > 100
COC(=O)c1cc(-c2ccc(-c3ccc(O)cc3)cc2)cc(-c2ccc(-c3ccc(O)cc3)cc2)c1 | 30.7 | 25.7 | 29.6 | – | 27.5 | 22.1 | – | 29.5 | 21.9 | 27.7 | 26.7 | 20.9 | 71.3 | –
CC(C)[Si](OCC1CC(C[C@H]2CC(C[C@H]3C[C@@H](CO[Si](C(C)C)(C(C)C)C(C)C)OC(C)(C)O3)OC(C)(C)O2)OC(C)(C)O1)(C(C)C)C(C)C (some centres not stated) | > 100 | > 100 | > 100 | > 100 | > 100 | > 100 | > 100 | > 100 | > 100 | > 100 | > 100 | > 100 | – | –
Cc1cc(NS(=O)(=O)c2ccc(NC(=O)c3cccc4cc5ccccc5nc34)cc2)no1 | 30.3 | 33.1 | > 100 | 45.8 | 55.9 | 48.4 | 75.5 | 46.7 | 70.2 | 66.4 | 89.3 | 29.1 | – | –
CNC(=O)c1n[nH]n(Cc2ccccc2)c1=S | > 100 | > 100 | > 100 | > 100 | > 100 | > 100 | > 100 | > 100 | > 100 | > 100 | > 100 | > 100 | > 100 | –
